{"source": "ChEMBL document CHEMBL1147992", "about": "“Glaziovianin A, a new isoflavone, from the leaves of Ateleia glazioviana and its cytotoxic activity against human cancer cells” (Bioorg Med Chem Lett, 2007)", "key": {"HL-60": {"test_system": "HL-60", "assay": "Cytotoxicity against human HL60 cells by MTT assay after 72 hrs", "assay_type": "functional, cell-based", "conditions": "HL-60, 72 h"}, "[1]": {"assay": "Cell cycle arrest in rat 3Y1 cells by accumulation at M phase at 3 uM after 18 hrs", "assay_type": "functional, cell-based"}, "HCT-15": {"test_system": "HCT-15", "assay": "Cytotoxicity against human HCT15 cells by MTT assay after 72 hrs", "assay_type": "functional", "conditions": "HCT-15, 72 h"}, "MKN-28": {"test_system": "MKN-28", "assay": "Cytotoxicity against human MKN28 cells by MTT assay after 72 hrs", "assay_type": "functional", "conditions": "MKN-28, 72 h"}, "[2]": {"assay": "Cytotoxicity against human HBC5 cells by MTT assay after 72 hrs", "assay_type": "functional", "conditions": "HBC5, 72 h"}, "3Y1": {"test_system": "3Y1", "assay": "Disruption of microtubules in rat 3Y1 cells at 1 uM after 18 hrs", "assay_type": "functional, cell-based"}, "NCI-H23": {"test_system": "NCI-H23", "assay": "Cytotoxicity against human NCIH23 cells by MTT assay after 72 hrs", "assay_type": "functional", "conditions": "NCI-H23, 72 h"}, "NCI-H522": {"test_system": "NCI-H522", "assay": "Cytotoxicity against human NCIH522 cells by MTT assay after 72 hrs", "assay_type": "functional", "conditions": "NCI-H522, 72 h"}, "SNB-78": {"test_system": "SNB-78", "assay": "Cytotoxicity against human SNB78 cells by MTT assay after 72 hrs", "assay_type": "functional", "conditions": "SNB-78, 72 h"}, "[3]": {"assay": "Cytotoxicity against human HBC4 cells by MTT assay after 72 hrs", "assay_type": "functional", "conditions": "HBC4, 72 h"}, "A549": {"test_system": "A549", "assay": "Cytotoxicity against human A549 cells by MTT assay after 72 hrs", "assay_type": "functional", "conditions": "A549, 72 h"}, "DMS-273": {"test_system": "DMS-273", "assay": "Cytotoxicity against human DMS273 cells by MTT assay after 72 hrs", "assay_type": "functional", "conditions": "DMS-273, 72 h"}, "[4]": {"assay": "Cytotoxicity against human BSY1 cells by MTT assay after 72 hrs", "assay_type": "functional", "conditions": "BSY-1, 72 h"}, "SF-268": {"test_system": "SF-268", "assay": "Cytotoxicity against human SF268 cells by MTT assay after 72 hrs", "assay_type": "functional", "conditions": "SF-268, 72 h"}, "MCF7": {"test_system": "MCF7", "assay": "Cytotoxicity against human MCF7 cells by MTT assay after 72 hrs", "assay_type": "functional", "conditions": "MCF7, 72 h"}, "PC-3": {"test_system": "PC-3", "assay": "Cytotoxicity against human PC3 cells by MTT assay after 72 hrs", "assay_type": "functional", "conditions": "PC-3, 72 h"}, "[5]": {"assay": "Cytotoxicity against human MKN1 cells by MTT assay after 72 hrs", "assay_type": "functional", "conditions": "MKN-1, 72 h"}, "SNB-75": {"test_system": "SNB-75", "assay": "Cytotoxicity against human SNB75 cells by MTT assay after 72 hrs", "assay_type": "functional", "conditions": "SNB-75, 72 h"}, "OVCAR-3": {"test_system": "OVCAR-3", "assay": "Cytotoxicity against human OVCAR-3 cells by MTT assay after 72 hrs", "assay_type": "functional", "conditions": "OVCAR-3, 72 h"}, "SK-OV-3": {"test_system": "SK-OV-3", "assay": "Cytotoxicity against human SK-OV3 cells by MTT assay after 72 hrs", "assay_type": "functional", "conditions": "SK-OV-3, 72 h"}, "SF-539": {"test_system": "SF-539", "assay": "Cytotoxicity against human SF539 cells by MTT assay after 72 hrs", "assay_type": "functional", "conditions": "SF-539, 72 h"}, "HCC 2998": {"test_system": "HCC 2998", "assay": "Cytotoxicity against human HCC2998 cells by MTT assay after 72 hrs", "assay_type": "functional", "conditions": "HCC 2998, 72 h"}, "St-4": {"test_system": "St-4", "assay": "Cytotoxicity against human St4 cells by MTT assay after 72 hrs", "assay_type": "functional", "conditions": "St-4, 72 h"}, "KM12": {"test_system": "KM12", "assay": "Cytotoxicity against human KM12 cells by MTT assay after 72 hrs", "assay_type": "functional", "conditions": "KM12, 72 h"}, "HCT-116": {"test_system": "HCT-116", "assay": "Cytotoxicity against human HCT116 cells by MTT assay after 72 hrs", "assay_type": "functional", "conditions": "HCT-116, 72 h"}, "U-251": {"test_system": "U-251", "assay": "Cytotoxicity against human U251 cells by MTT assay after 72 hrs", "assay_type": "functional", "conditions": "U-251, 72 h"}, "LOX IMVI": {"test_system": "LOX IMVI", "assay": "Cytotoxicity against human LOX-IMVI cells by MTT assay after 72 hrs", "assay_type": "functional"}, "HT-29": {"test_system": "HT-29", "assay": "Cytotoxicity against human HT29 cells by MTT assay after 72 hrs", "assay_type": "functional", "conditions": "HT-29, 72 h"}, "MKN-7": {"test_system": "MKN-7", "assay": "Cytotoxicity against human MKN7 cells by MTT assay after 72 hrs", "assay_type": "functional", "conditions": "MKN-7, 72 h"}, "DMS-114": {"test_system": "DMS-114", "assay": "Cytotoxicity against human DMS114 cells by MTT assay after 72 hrs", "assay_type": "functional", "conditions": "DMS-114, 72 h"}, "MKN-74": {"test_system": "MKN-74", "assay": "Cytotoxicity against human MKN74 cells by MTT assay after 72 hrs", "assay_type": "functional", "conditions": "MKN-74, 72 h"}, "[6]": {"assay": "Cytotoxicity against human RXF631L cells by MTT assay after 72 hrs", "assay_type": "functional", "conditions": "RXF 631, 72 h"}, "MKN-45": {"test_system": "MKN-45", "assay": "Cytotoxicity against human MKN45 cells by MTT assay after 72 hrs", "assay_type": "functional", "conditions": "MKN-45, 72 h"}, "NCI-H460": {"test_system": "NCI-H460", "assay": "Cytotoxicity against human NCIH460 cells by MTT assay after 72 hrs", "assay_type": "functional", "conditions": "NCI-H460, 72 h"}, "OVCAR-5": {"test_system": "OVCAR-5", "assay": "Cytotoxicity against human OVCAR5 cells by MTT assay after 72 hrs", "assay_type": "functional", "conditions": "OVCAR-5, 72 h"}, "OVCAR-8": {"test_system": "OVCAR-8", "assay": "Cytotoxicity against human OVCAR8 cells by MTT assay after 72 hrs", "assay_type": "functional", "conditions": "OVCAR-8, 72 h"}, "OVCAR-4": {"test_system": "OVCAR-4", "assay": "Cytotoxicity against human OVCAR4 cells by MTT assay after 72 hrs", "assay_type": "functional", "conditions": "OVCAR-4, 72 h"}, "MDA-MB-231": {"test_system": "MDA-MB-231", "assay": "Cytotoxicity against human MDA-MB-231 cells by MTT assay after 72 hrs", "assay_type": "functional", "conditions": "MDA-MB-231, 72 h"}, "DU-145": {"test_system": "DU-145", "assay": "Cytotoxicity against human DU145 cells by MTT assay after 72 hrs", "assay_type": "functional", "conditions": "DU-145, 72 h"}, "ACHN": {"test_system": "ACHN", "assay": "Cytotoxicity against human ACHN cells by MTT assay after 72 hrs", "assay_type": "functional"}, "[7]": {"assay": "Cytotoxicity against human […] cells by MTT assay after 72 hrs", "assay_type": "functional"}, "SF-295": {"test_system": "SF-295", "assay": "Cytotoxicity against human SF295 cells by MTT assay after 72 hrs", "assay_type": "functional", "conditions": "SF-295, 72 h"}}, "note": "The source made the active and inactive calls. No cut-off for these calls is given here.", "data": [{"smiles": "COc1cc2occ(-c3cc4c(cc3OC)OCO4)c(=O)c2cc1OC", "values": [{"measurement": "IC50", "setting": "HL-60", "result": 16000, "unit": "nM"}]}, {"smiles": "COc1cc2occ(-c3cc(OC)c4c(c3OC)OCO4)c(=O)c2cc1OC", "note": "[GLAZIOVIANIN A]", "values": [{"measurement": "Activity", "setting": "[1]", "result": "Active"}, {"measurement": "GI50", "setting": "HCT-15", "result": 290, "unit": "nM"}, {"measurement": "GI50", "setting": "MKN-28", "result": 450, "unit": "nM"}, {"measurement": "GI50", "setting": "[2]", "result": 470, "unit": "nM"}, {"measurement": "Activity", "setting": "3Y1", "result": "Active"}, {"measurement": "GI50", "setting": "NCI-H23", "result": 5130, "unit": "nM"}, {"measurement": "GI50", "setting": "NCI-H522", "result": 230, "unit": "nM"}, {"measurement": "GI50", "setting": "SNB-78", "result": 10700, "unit": "nM"}, {"measurement": "GI50", "setting": "[3]", "result": 1950, "unit": "nM"}, {"measurement": "GI50", "setting": "A549", "result": 830, "unit": "nM"}, {"measurement": "GI50", "setting": "DMS-273", "result": 130, "unit": "nM"}, {"measurement": "GI50", "setting": "[4]", "result": 50, "unit": "nM"}, {"measurement": "GI50", "setting": "SF-268", "result": 830, "unit": "nM"}, {"measurement": "GI50", "setting": "MCF7", "result": 390, "unit": "nM"}, {"measurement": "GI50", "setting": "PC-3", "result": 100, "unit": "nM"}, {"measurement": "GI50", "setting": "[5]", "result": 690, "unit": "nM"}, {"measurement": "GI50", "setting": "SNB-75", "result": 630, "unit": "nM"}, {"measurement": "GI50", "setting": "OVCAR-3", "result": 130, "unit": "nM"}, {"measurement": "GI50", "setting": "SK-OV-3", "result": 280, "unit": "nM"}, {"measurement": "GI50", "setting": "SF-539", "result": 320, "unit": "nM"}, {"measurement": "GI50", "setting": "HCC 2998", "result": 3020, "unit": "nM"}, {"measurement": "GI50", "setting": "St-4", "result": 15100, "unit": "nM"}, {"measurement": "GI50", "setting": "KM12", "result": 320, "unit": "nM"}, {"measurement": "GI50", "setting": "HCT-116", "result": 560, "unit": "nM"}, {"measurement": "GI50", "setting": "U-251", "result": 790, "unit": "nM"}, {"measurement": "GI50", "setting": "LOX IMVI", "result": 870, "unit": "nM"}, {"measurement": "GI50", "setting": "HT-29", "result": 460, "unit": "nM"}, {"measurement": "GI50", "setting": "MKN-7", "result": 1510, "unit": "nM"}, {"measurement": "GI50", "setting": "DMS-114", "result": 200, "unit": "nM"}, {"measurement": "GI50", "setting": "MKN-74", "result": 390, "unit": "nM"}, {"measurement": "GI50", "setting": "[6]", "result": 510, "unit": "nM"}, {"measurement": "GI50", "setting": "MKN-45", "result": 680, "unit": "nM"}, {"measurement": "IC50", "setting": "HL-60", "result": 290, "unit": "nM"}, {"measurement": "GI50", "setting": "NCI-H460", "result": 410, "unit": "nM"}, {"measurement": "GI50", "setting": "OVCAR-5", "result": 2190, "unit": "nM"}, {"measurement": "GI50", "setting": "OVCAR-8", "result": 1510, "unit": "nM"}, {"measurement": "GI50", "setting": "OVCAR-4", "result": 10500, "unit": "nM"}, {"measurement": "GI50", "setting": "MDA-MB-231", "result": 1100, "unit": "nM"}, {"measurement": "GI50", "setting": "DU-145", "result": 590, "unit": "nM"}, {"measurement": "GI50", "setting": "ACHN", "result": 620, "unit": "nM"}, {"measurement": "GI50", "setting": "[7]", "result": 580, "unit": "nM"}, {"measurement": "GI50", "setting": "SF-295", "result": 340, "unit": "nM"}]}, {"smiles": "COc1cc(OC)c(-c2coc3cc(OC)c(OC)cc3c2=O)cc1OC", "values": [{"measurement": "IC50", "setting": "HL-60", "result": 8500, "unit": "nM"}]}, {"smiles": "COc1ccc(-c2coc3cc(OC)c(OC)cc3c2=O)cc1OC", "values": [{"measurement": "IC50", "setting": "HL-60", "result": 23000, "unit": "nM"}]}]}
